{"source": "paper PMC4533898", "about": "(Biochemistry, 2015)", "key": {"[1]": {"target": "Progesterone receptor membrane component 1 (hPGRMC1) (Homo sapiens, UniProt O00264, Y164F)", "sequence (O00264 71-195 Y164F)": "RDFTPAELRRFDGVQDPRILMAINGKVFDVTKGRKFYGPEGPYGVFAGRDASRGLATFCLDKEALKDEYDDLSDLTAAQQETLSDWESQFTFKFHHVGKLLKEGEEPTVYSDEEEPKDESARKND", "experiment": "UV-vis spectroscopy", "format": "binding"}, "[2]": {"target": "Progesterone receptor membrane component 1 (hPGRMC1) (Homo sapiens, UniProt O00264, Y164H)", "sequence (O00264 71-195 Y164H)": "as the sequence (O00264 71-195 Y164F) above, with F94H counted along it", "experiment": "UV-vis", "format": "binding"}}, "data": [{"substance": "heme", "values": [{"measurement": "% of WT heme binding", "setting": "[1]", "result": "~ 15 % of WT heme binding"}, {"measurement": "% of WT heme binding", "setting": "[2]", "result": "~ 90 % of WT heme binding"}]}]}
